Measurements as given in patent publication EP4610269A1, “UROKINASE PLASMINOGEN ACTIVATOR SURFACE RECEPTOR (UPAR) LIGANDS FOR DIAGNOSTIC OR THERAPEUTIC USE” (3B Pharmaceuticals GmbH, priority 2024, dated 2025).
Where a SMILES comes first, the peptide text is derived from it. Bridges are numbered along the chain shown (N, C = ends). [ ]: non-standard residue; d: D form. The star is where a group is joined. CH3O(CH2CH2O)11CH2CH2CO = COCCOCCOCCOCCOCCOCCOCCOCCOCCOCCOCCOCCC(=O)*; DOTA = O=C(O)CN1CCN(CC(=O)O)CCN(CC(=O)*)CCN(CC(=O)O)CC1; Oic = O=C(O)[C@@H]1C[C@@H]2CCCC[C@@H]2N1; Phe(4-CN) = N#Cc1ccc(C[C@H](N)C(=O)O)cc1; Pro(cis-4-F) = O=C(O)[C@@H]1C[C@H](F)CN1; Pro(4R-NH2) = N[C@H]1CN[C@H](C(=O)O)C1; Ala(cPr) = N[C@@H](CC1CC1)C(=O)O; Hyp = O=C(O)[C@@H]1C[C@@H](O)CN1; tBuAla = CC(C)(C)C[C@H](N)C(=O)O; Pentanoyl(4-Me) = CC(C)CCC(=O)*; Cha = N[C@@H](CC1CCCCC1)C(=O)O; Cit = NC(=O)NCCC[C@H](N)C(=O)O; NMeL = CN[C@@H](CC(C)C)C(=O)O; Butoxycarbonyl = CCCCOC(=O)*; hSer = N[C@@H](CCO)C(=O)O; Orn = NCCC[C@H](N)C(=O)O; Thz = O=C(O)[C@@H]1CSCN1; dNMeA = CN[C@H](C)C(=O)O; Nva = CCC[C@H](N)C(=O)O; Pentanoyl = CCCCC(=O)*

How the values were obtained:
[1] = target: T1, uPAR-expressing HEC-265 human endometrial adenocarcinoma cells (Homo sapiens, UniProt Q03405); assay: Competitive FACS binding assay; details: pIC50 category of FACS binding
T1 construct: Cell surface uPAR-expressing HEC-265 human endometrial adenocarcinoma cells; host or cells: HEC-265
Method in brief: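 Competitive displacement of a 10 nM biotinylated peptide from HEC-265 cells (1 h, 4 °C, PBS/1% BSA), detected via APC-streptavidin by flow cytometry. pIC50 from four-parameter logistic fit of median fluorescence versus concentration.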

human uPAR (uPAR-Fc) = target: T2, human uPAR (uPAR-Fc) (Homo sapiens, UniProt Q03405); assay: Surface plasmon resonance (SPR) assay, single cycle kinetics; assay type: binding; details: pKD category for uPAR SPR activity assay; uPAR-Fc on Protein A-Chip, single cycle kinetics, 25°C; read-out: pKD CAT (converted)
T2 construct: comprising amino acids Leu23-Arg303 according to UniProt entry Q03405.1; purchased R&D Systems 10378-UK-100
Method in brief: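 uPAR-Fc (Leu23-Arg303 extracellular domains, human IgG1 Fc) captured on Protein A chip to ~2000 RU; single-cycle kinetics at 25°C in HEPES running buffer pH 7.4 with 0.1% DMSO. KD from double-referenced sensorgrams fitted to 1:1 Langmuir model, reported as pKD.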

T1 sequence (Q03405 23-335): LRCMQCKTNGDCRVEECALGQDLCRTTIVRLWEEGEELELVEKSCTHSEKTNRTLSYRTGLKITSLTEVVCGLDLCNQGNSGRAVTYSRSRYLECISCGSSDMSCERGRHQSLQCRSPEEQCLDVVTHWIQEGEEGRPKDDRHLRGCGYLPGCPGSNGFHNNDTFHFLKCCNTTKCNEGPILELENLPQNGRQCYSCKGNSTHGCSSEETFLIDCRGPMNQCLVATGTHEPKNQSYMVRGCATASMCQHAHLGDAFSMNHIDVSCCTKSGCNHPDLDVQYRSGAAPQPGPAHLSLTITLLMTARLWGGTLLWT
T2 sequence (Q03405 23-303): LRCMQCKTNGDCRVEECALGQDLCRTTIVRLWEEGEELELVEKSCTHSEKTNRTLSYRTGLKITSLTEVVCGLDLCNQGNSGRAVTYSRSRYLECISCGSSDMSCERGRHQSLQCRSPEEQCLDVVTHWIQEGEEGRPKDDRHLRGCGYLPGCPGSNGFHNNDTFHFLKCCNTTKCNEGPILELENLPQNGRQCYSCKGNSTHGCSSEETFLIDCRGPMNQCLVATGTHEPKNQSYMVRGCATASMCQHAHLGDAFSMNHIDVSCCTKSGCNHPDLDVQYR

| Structure (SMILES) | IC50 [1] [µM] | Kd (human uPAR (uPAR-Fc)) [µM] |
| --- | --- | --- |
| CCCCOC(=O)N[C@H]1CSSC[C@@H](C(N)=O)NC(=O)[C@H](CCO)NC(=O)[C@H]([C@@H](C)CC)NC(=O)[C@@H]2C[C@@H](O)CN2C(=O)[C@@H]2C[C@H](F)CN2C(=O)[C@H](Cc2ccccc2)NC(=O)[C@H](Cc2ccc(O)cc2)NC(=O)[C@H](CCCCNC(=O)CN2CCN(CC(=O)O)CCN(CC(=O)O)CCN(CC(=O)O)CC2)NC(=O)[C@H]([C@@H](C)O)NC1=O [UPAR-368, Butoc-[Cys-Thr-Lys(DOTA)-Tyr-Phe-4Cfp-Hyp-Ile-Hse-Cys]-NH2] (Butoxycarbonyl-CTK(DOTA)YF[Pro(cis-4-F)][Hyp]I[hSer]C-NH2; disulfide 1-10) | ≤ 0.01 | 0.01 to 0.1 |
| CCCCC(=O)N[C@H]1CSSC[C@@H](C(N)=O)NC(=O)[C@H](CCC)NC(=O)[C@H](CC(C)(C)C)NC(=O)[C@@H]2C[C@@H](O)CN2C(=O)[C@@H]2CCCN2C(=O)[C@H](Cc2ccccc2)NC(=O)[C@H](Cc2ccc(O)cc2)NC(=O)[C@H](CCC(N)=O)NC(=O)[C@H](CCCNC(=N)N)NC1=O [UPAR-370, Pent-[Cys-Arg-Gln-Tyr-Phe-Pro-Hyp-Npg-Nva-Cys]-NH2] (Pentanoyl-CRQYFP[Hyp][tBuAla][Nva]C-NH2; disulfide 1-10) | ≤ 0.01 | < 0.00158 |
| CCC[C@@H]1NC(=O)[C@H]([C@@H](C)CC)NC(=O)[C@@H]2C[C@@H](O)CN2C(=O)[C@@H]2CCCN2C(=O)[C@H](Cc2ccccc2)NC(=O)[C@H](Cc2ccc(O)cc2)NC(=O)[C@H](CCC(N)=O)NC(=O)[C@H](CCCNC(=N)N)NC(=O)[C@@H](NC(=O)[C@H](CC2CCCCC2)NC(C)=O)CSSC[C@@H](C(N)=O)NC1=O [UPAR-372, Ac-Cha-[Cys-Arg-Gln-Tyr-Phe-Pro-Hyp-Ile-Nva-Cys]-NH2] (Ac-[Cha]CRQYFP[Hyp]I[Nva]C-NH2; disulfide 2-11) | ≤ 0.01 | < 0.00158 |
| CCCCC(=O)N[C@H]1CSSC[C@@H](C(N)=O)NC(=O)[C@H](CCC)NC(=O)[C@H]([C@@H](C)CC)NC(=O)[C@@H]2C[C@@H](O)CN2C(=O)[C@@H]2CCCN2C(=O)[C@H](Cc2ccccc2)NC(=O)[C@H](CC2CCCCC2)NC(=O)[C@H](CCC(N)=O)NC(=O)[C@H](CCCNC(=N)N)NC1=O [UPAR-373, Pent-[Cys-Arg-Gln-Cha-Phe-Pro-Hyp-Ile-Nva-Cys]-NH2] (Pentanoyl-CRQ[Cha]FP[Hyp]I[Nva]C-NH2; disulfide 1-10) | ≤ 0.01 | < 0.00158 |
| CC[C@H](C)[C@@H]1NC(=O)[C@@H](C)NC(=O)[C@@H]2CSCN2C(=O)[C@H](Cc2ccccc2)NC(=O)[C@H](Cc2ccc(O)cc2)NC(=O)[C@H](CCC(N)=O)NC(=O)[C@H](CCCNC(N)=O)NC(=O)[C@@H](NC(=O)CCC(C)C)CSSC[C@@H](C(N)=O)NC(=O)[C@H](CC(C)C)NC1=O [UPAR-375, iHex-[Cys-Cit-Gln-Tyr-Phe-Eaz-ala-Ile-Leu-Cys]-NH2] ({Pentanoyl(4-Me)}-C[Cit]QYF[Thz][dA]ILC-NH2; disulfide 1-10) | ≤ 0.01 | < 0.00158 |
| CCCCOC(=O)N[C@H]1CSSC[C@@H](C(N)=O)NC(=O)[C@H](CCC)NC(=O)[C@H]([C@@H](C)CC)NC(=O)[C@@H]2C[C@@H](O)CN2C(=O)[C@@H]2C[C@H](F)CN2C(=O)[C@H](Cc2ccc(C#N)cc2)NC(=O)[C@H](Cc2ccc(O)cc2)NC(=O)[C@H](CCCCNC(=O)CN2CCN(CC(=O)O)CCN(CC(=O)O)CCN(CC(=O)O)CC2)NC(=O)[C@H]([C@@H](C)O)NC1=O [UPAR-378, Butoc-[Cys-Thr-Lys(DOTA)-Tyr-Pnf-4Cfp-Hyp-Ile-Nva-Cys]-NH2] (Butoxycarbonyl-CTK(DOTA)Y[Phe(4-CN)][Pro(cis-4-F)][Hyp]I[Nva]C-NH2; disulfide 1-10) | ≤ 0.01 | < 0.00158 |
| CC[C@H](C)[C@@H]1NC(=O)[C@H](C)NC(=O)[C@@H]2CCCN2C(=O)[C@H](Cc2ccccc2)NC(=O)[C@H](Cc2ccc(O)cc2)NC(=O)[C@H](CCC(N)=O)NC(=O)[C@H](CCCNC(=N)N)NC(=O)[C@@H](NC(=O)[C@H](CC(C)C)NC(C)=O)CSSC[C@@H](C(N)=O)NC(=O)[C@H](CC(C)C)NC1=O [UPAR-381, Ac-Leu-[Cys-Arg-Gln-Tyr-Phe-Pro-Ala-Ile-Leu-Cys]-NH2] (Ac-LCRQYFPAILC-NH2; disulfide 2-11) | ≤ 0.01 | < 0.00158 |
| CCCCC(=O)N[C@H]1CSSC[C@@H](C(N)=O)NC(=O)[C@H](CCC)NC(=O)[C@H]([C@@H](C)CC)NC(=O)[C@@H]2C[C@@H](O)CN2C(=O)[C@@H]2C[C@@H]3CCCC[C@@H]3N2C(=O)[C@H](Cc2ccccc2)NC(=O)[C@H](Cc2ccc(O)cc2)NC(=O)[C@H](CCC(N)=O)NC(=O)[C@H](CCCNC(=N)N)NC1=O [UPAR-387, Pent-[Cys-Arg-Gln-Tyr-Phe-Oic-Hyp-Ile-Nva-Cys]-NH2] (Pentanoyl-CRQYF[Oic][Hyp]I[Nva]C-NH2; disulfide 1-10) | ≤ 0.01 | < 0.00158 |

Next, values leading:

| IC50 [1] [µM] | Kd (human uPAR (uPAR-Fc)) [µM] | Structure (SMILES) |
| --- | --- | --- |
| ≥ 0.126 | > 0.1 | CC[C@H](C)[C@@H]1NC(=O)[C@@H]2C[C@@H](O)CN2C(=O)[C@@H]2CCCN2C(=O)[C@H](Cc2ccccc2)NC(=O)[C@H](Cc2ccc(O)cc2)NC(=O)[C@H](CCC(N)=O)NC(=O)[C@H](CCCNC(N)=O)NC(=O)[C@@H](NC(=O)[C@H](CC(C)C)NC(=O)CN2CCN(CC(=O)O)CCN(CC(=O)O)CCN(CC(=O)O)CC2)CSSC[C@@H](C(N)=O)NC(=O)[C@H](CC(C)C)N(C)C1=O [UPAR-371, DOTA-Leu-[Cys-Cit-Gln-Tyr-Phe-Pro-Hyp-Ile-Nml-Cys]-NH2] ({DOTA}-LC[Cit]QYFP[Hyp]I[NMeL]C-NH2; disulfide 2-11) |
| ≤ 0.01 | < 0.00158 | CCCCC(=O)N[C@H]1CSSC[C@@H](C(N)=O)NC(=O)[C@H](CCC)NC(=O)[C@H]([C@@H](C)CC)NC(=O)[C@@H]2C[C@@H](N)CN2C(=O)[C@@H]2CCCN2C(=O)[C@H](Cc2ccccc2)NC(=O)[C@H](Cc2ccc(O)cc2)NC(=O)[C@H](CCCCNC(=O)CN2CCN(CC(=O)O)CCN(CC(=O)O)CCN(CC(=O)O)CC2)NC(=O)[C@H](CCCNC(N)=O)NC1=O [UPAR-377, Pent-[Cys-Cit-Lys(DOTA)-Tyr-Phe-Pro-Tap-Ile-Nva-Cys]-NH2] (Pentanoyl-C[Cit]K(DOTA)YFP[Pro(4R-NH2)]I[Nva]C-NH2; disulfide 1-10) |
| ≤ 0.01 | < 0.00158 | CCCCC(=O)N[C@H]1CSSC[C@@H](C(N)=O)NC(=O)[C@H](CC2CC2)NC(=O)[C@H]([C@@H](C)CC)NC(=O)[C@@H]2C[C@@H](O)CN2C(=O)[C@@H]2CCCN2C(=O)[C@H](Cc2ccccc2)NC(=O)[C@H](Cc2ccc(O)cc2)NC(=O)[C@H](CCC(N)=O)NC(=O)[C@H](CCCNC(=N)N)NC1=O [UPAR-379, Pent-[Cys-Arg-Gln-Tyr-Phe-Pro-Hyp-Ile-Cpra-Cys]-NHz] (Pentanoyl-CRQYFP[Hyp]I[Ala(cPr)]C-NH2; disulfide 1-10) |
| ≤ 0.01 | 0.00158 to 0.01 | CCCCC(=O)N[C@H]1CSSC[C@@H](C(N)=O)NC(=O)[C@H](COC)NC(=O)[C@H]([C@@H](C)CC)NC(=O)[C@@H]2C[C@@H](O)CN2C(=O)[C@@H]2CCCN2C(=O)[C@H](Cc2ccccc2)NC(=O)[C@H](Cc2ccc(O)cc2)NC(=O)[C@H](CCCCNC(=O)CN2CCN(CC(=O)O)CCN(CC(=O)O)CCN(CC(=O)O)CC2)NC(=O)[C@H](CCCNC(N)=O)NC1=O [UPAR-380, Pent-[Cys-Cit-Lys(DOTA)-Tyr-Phe-Pro-Hyp-Ile-Ser(Me)-Cys]-NH2] (Pentanoyl-C[Cit]K(DOTA)YFP[Hyp]IS(Me)C-NH2; disulfide 1-10) |
| ≤ 0.01 | < 0.00158 | CCCCC(=O)N[C@H]1CSSC[C@@H](C(N)=O)NC(=O)[C@H](CCC)NC(=O)[C@H]([C@@H](C)CC)NC(=O)[C@@H]2C[C@@H](O)CN2C(=O)[C@@H]2CCCN2C(=O)[C@H](Cc2ccccc2)NC(=O)[C@H](Cc2ccc(O)cc2)NC(=O)[C@H](CCCCNC(=O)CN2CCN(CC(=O)O)CCN(CC(=O)O)CCN(CC(=O)O)CC2)NC(=O)[C@H](CCCNC(=O)CCOCCOCCOCCOCCOCCOCCOCCOCCOCCOCCOCCOC)NC1=O [UPAR-383, Pent-[Cys-Orn(mPEG12)-Lys(DOTA)-Tyr-Phe-Pro-Hyp-Ile-Nva-Cys]-NHz] (Pentanoyl-C[Orn](CH3O(CH2CH2O)11CH2CH2CO)K(DOTA)YFP[Hyp]I[Nva]C-NH2; disulfide 1-10) |
| ≤ 0.01 | < 0.00158 | CCCCC(=O)N[C@H]1CSSC[C@@H](C(N)=O)NC(=O)[C@H](CCC)NC(=O)[C@H]([C@@H](C)CC)NC(=O)[C@@H](C)N(C)C(=O)[C@@H]2CCCN2C(=O)[C@H](Cc2ccccc2)NC(=O)[C@H](Cc2ccc(O)cc2)NC(=O)[C@H](CCCCNC(=O)CN2CCN(CC(=O)O)CCN(CC(=O)O)CCN(CC(=O)O)CC2)NC(=O)[C@H](CCCNC(N)=O)NC1=O [UPAR-384, Pent-[Cys-Cit-Lys(DOTA)-Tyr-Phe-Pro-nma-Ile-Nva-Cys]-NH2] (Pentanoyl-C[Cit]K(DOTA)YFP[dNMeA]I[Nva]C-NH2; disulfide 1-10) |
| ≥ 0.126 | 0.01 to 0.1 | CCCCC(=O)N[C@H]1CSSC[C@@H](C(N)=O)NC(=O)[C@H](CCC)NC(=O)[C@H](CCCCN)NC(=O)[C@@H]2C[C@@H](O)CN2C(=O)[C@@H]2CCCN2C(=O)[C@H](Cc2ccccc2)NC(=O)[C@H](Cc2ccc(O)cc2)NC(=O)[C@H](CCC(N)=O)NC(=O)[C@H](CCCNC(=N)N)NC1=O [UPAR-385, Pent-[Cys-Arg-Gln-Tyr-Phe-Pro-Hyp-Lys-Nva-Cys]-NH2] (Pentanoyl-CRQYFP[Hyp]K[Nva]C-NH2; disulfide 1-10) |
